Legend:
SH-SY5Y [1] = assay: Neuroprotective activity against oxygen glucose-deprivation induced toxicity in human SH-SY5Y cells at 10 uM relative to control; format: functional
RAW264.7 [2] = assay: Antiinflammatory activity in mouse RAW264.7 cells assessed as inhibition of LPS-induced NO production at 10 uM relative to control; format: functional
RAW264.7 [3] = assay: Cytotoxicity against mouse RAW264.7 cells assessed as decrease in cell viability by MTT assay; format: cell-based
SH-SY5Y [4] = assay: Neuroprotective activity against oxygen glucose-deprivation induced toxicity in human SH-SY5Y cells at […] relative to control; format: functional

| SMILES | Activity (SH-SY5Y [1]) [%] | inhibition at 10 µM (RAW264.7 [2]) [%] | Activity (RAW264.7 [3]) | Activity (SH-SY5Y [4]) [%] |
| --- | --- | --- | --- | --- |
| C[C@@H]1CC[C@@]2(OC1)O[C@H]1C[C@H]3[C@@H]4CCc5cc(OCc6cn(-c7ccccc7)nn6)ccc5[C@H]4CC[C@]3(C)[C@H]1[C@@H]2C | 12.1 | – | – | – |
| C[C@@H]1CC[C@@]2(OC1)O[C@H]1C[C@H]3[C@@H]4CCc5cc(OCc6cn(Cc7ccc(C(F)(F)F)cc7)nn6)ccc5[C@H]4CC[C@]3(C)[C@H]1[C@@H]2C | 66.4 | 9.5 | – | – |
| COc1ccc(-n2cc(COc3ccc4c(c3)CC[C@@H]3[C@@H]4CC[C@]4(C)[C@@H]5[C@H](C[C@@H]34)O[C@]3(CC[C@@H](C)CO3)[C@H]5C)nn2)cc1 | 40.1 | 9.9 | – | – |
| C[C@@H]1CC[C@@]2(OC1)O[C@H]1C[C@H]3[C@@H]4CCc5cc(OCc6cn(Cc7cc(F)c(F)cc7F)nn6)ccc5[C@H]4CC[C@]3(C)[C@H]1[C@@H]2C | 16.5 | – | – | – |
| CCCn1cc(COc2ccc3c(c2)CC[C@@H]2[C@@H]3CC[C@]3(C)[C@@H]4[C@H](C[C@@H]23)O[C@]2(CC[C@@H](C)CO2)[C@H]4C)nn1 | 73.9 | – | – | – |
| C[C@@H]1CC[C@@]2(OC1)O[C@H]1C[C@H]3[C@@H]4CCc5cc(OCc6cn(Cc7ccccc7F)nn6)ccc5[C@H]4CC[C@]3(C)[C@H]1[C@@H]2C | 12.1 | 14.2 | – | – |
| C[C@@H]1CC[C@@]2(OC1)O[C@H]1C[C@H]3[C@@H]4CCc5cc(OCc6cn(Cc7ccc(F)cc7)nn6)ccc5[C@H]4CC[C@]3(C)[C@H]1[C@@H]2C | 50.7 | 19.7 | – | – |
| C[C@@H]1CC[C@@]2(OC1)O[C@H]1C[C@H]3[C@@H]4CCc5cc(OCc6cn(-c7ccccc7C#N)nn6)ccc5[C@H]4CC[C@]3(C)[C@H]1[C@@H]2C | 81.2 | – | Toxic | – |
| COc1ccc2c(c1)c(CC(=O)O)c(C)n2C(=O)c1ccc(Cl)cc1 [INDOMETHACIN] | – | 34.9 | – | – |
| Cc1ccc(-n2cc(COc3ccc4c(c3)CC[C@@H]3[C@@H]4CC[C@]4(C)[C@@H]5[C@H](C[C@@H]34)O[C@]3(CC[C@@H](C)CO3)[C@H]5C)nn2)cc1 | 3.3 | – | – | – |
| C[C@@H]1CC[C@@]2(OC1)O[C@H]1C[C@H]3[C@@H]4CCc5cc(OCc6cn(Cc7ccccc7)nn6)ccc5[C@H]4CC[C@]3(C)[C@H]1[C@@H]2C | 35.5 | 23.5 | – | – |
| C[C@@H]1CC[C@@]2(OC1)O[C@H]1C[C@H]3[C@@H]4CCc5cc(OCc6cn(Cc7ccc(C#N)cc7)nn6)ccc5[C@H]4CC[C@]3(C)[C@H]1[C@@H]2C | 57.6 | 11.9 | – | – |
| C[C@@H]1CC[C@@]2(OC1)O[C@H]1C[C@H]3[C@@H]4CC=C5C[C@@H](O)CC[C@]5(C)[C@H]4CC[C@]3(C)[C@H]1[C@@H]2C [DISOGENIN] | 3.5 | 5.9 | – | – |
| C[C@@H]1CC[C@@]2(OC1)O[C@H]1C[C@H]3[C@@H]4CCc5cc(OCc6cn(-c7cc(F)cc(F)c7)nn6)ccc5[C@H]4CC[C@]3(C)[C@H]1[C@@H]2C | 71.4 | – | – | – |
| CC(=O)N[C@@H](CS)C(=O)O [ACETYLCYSTEINE] | – | – | – | 84.3 |
| Cc1ccc(Cn2cc(COc3ccc4c(c3)CC[C@@H]3[C@@H]4CC[C@]4(C)[C@@H]5[C@H](C[C@@H]34)O[C@]3(CC[C@@H](C)CO3)[C@H]5C)nn2)cc1 | 34.1 | 35.6 | – | – |
| COc1ccc(Cn2cc(COc3ccc4c(c3)CC[C@@H]3[C@@H]4CC[C@]4(C)[C@@H]5[C@H](C[C@@H]34)O[C@]3(CC[C@@H](C)CO3)[C@H]5C)nn2)cc1 | 73.9 | 40.4 | – | – |
| C[C@@H]1CC[C@@]2(OC1)O[C@H]1C[C@H]3[C@@H]4CCc5cc(OCc6cn(Cc7cccc(F)c7)nn6)ccc5[C@H]4CC[C@]3(C)[C@H]1[C@@H]2C | 51.6 | 30.6 | – | – |
